Results as given in US20080275095A1, “Combination of Prostaglandin E2 Receptor Antagonists and Renin-Angiotensin System Inhibitors for Treating Renal Diseases” (Astellas Pharma Inc., priority 2004, published 2008).

System: rat uninephrectomized anti-Thy-1 nephritis model
Assay: Combination effect of captopril and FR233074 on rat uninephrectomized anti-Thy-1 nephritis model
Assay type: in vivo
Conditions: for elevation in systolic blood pressure: 10 weeks after administration of the antibody, FIG. 9; for elevation in systolic blood pressure / glomerular and tubulointerstitial injury (histological observation): versus control group; for increase in urinary excretion of protein: 24-h urine up to 24 weeks after antibody, captopril 30 mg/kg/day, FR233074 20 mg/kg/day, FIG. 3; for time from the disease induction to the renal death (time point for 1/Cr=0.1): linear extrapolation from averaged 1/Cr and 1/Cr slope, FIG. 8; for rate of decline in renal function (1/Cr slope): single agents versus control, combination versus each agent alone, FIG. 7; for glomerular and tubulointerstitial injury (histological observation): FIG. 12-13
Procedure: Male Wistar rats (6-weeks old) were used for the example. These Wistar rats were anesthetized by administration of pentobarbital and subjected to unilateral nephrectomy. Two weeks later, these rats were injected with anti-Thy-1 antibody (gift of Department of Cell Biology, Institute of Nephrology, Niigata University Graduate School of Medical and Dental Sciences, Japan) from tail vein of them to induce anti-Thy-1 nephritis. Normal group were subjected to only ventrotomy without unilateral nephrectomy and injected with saline instead of anti-Thy-1 antibody.
One week after administration of the antibody, the rats were weighted, blood of the rats were collected (0.55 ml from subclavian vein), and 24-h urine collections were performed. Then, these rats were divided into the groups based on body weight, renal function parameters (BUN (blood urea nitrogen) and serum creatinine) and urinary excretion of protein.
The agents were administered to the rats for 23 weeks from the day of the grouping. 2, 4, 6, 8, 12, 16, 20 and 24 weeks after administration of the antibody (at 24 weeks after administration of the antibody, the administration of the agents was finished), the rats were weighted, blood of the rats were collected, 24-h urine collections were performed, and then, body weight, renal function parameters and urinary excretion of protein of the rats were determined. Systemic blood pressure of each rat was also measured at 10 weeks after administration of the antibody.
An averaged value of 1/Cr in each group at one week after disease induction was plotted, and drew down linearly, based on an averaged value of 1/Cr slope in each group. A time point for 1/Cr=0.1 was calculated, and defined as time reaching renal death (time point for 1/Cr=0.1 is one of standards for introducing dialytic therapy in clinical practice).

Compound | elevation in systolic blood pressure | increase in urinary excretion of protein | time from the disease induction to the renal death (time point for 1/Cr=0.1) | rate of decline in renal function (1/Cr slope) | glomerular and tubulointerstitial injury (histological observation)
O=C(NS(=O)(=O)Cc1ccccc1)c1cccc(C[C@@H]2CCCC=C2c2nc(-c3ccccc3)c(-c3ccccc3)o2)c1 [FR233074, N-benzylsulfonyl-3-{[(1S)-2-(4,5-diphenyloxazol-2-yl)-2-cyclohexen-1-yl]methyl}benzamide] | no significant effect | suppressed | prolonged | decreased | extent of damage was reduced
C[C@H](CS)C(=O)N1CCC[C@H]1C(=O)O [captopril] | suppressed | suppressed | prolonged | decreased | extent of damage was reduced
